Source: patent US20100041103A1, “COMPOSITION AND METHOD FOR ENHANCING CELL GROWTH AND CELL FUSION” (DO-COOP TECHNOLOGIES LTD., priority 2007, published 2010)
Counter-ions that a name gives are not always drawn. Ends that are not written are not given here.

Tests used:
[1] = cited from earlier work
[2] = Dissolving CD-Dau, Daunorubicine and t-boc (Example 9); assay type: physicochemical
Description: 5 different glass vials were prepared: • 1. 5 mg CD-Dau+1.2 ml Neowater™. • 2. 1.8 mg CD-Dau+600 μl acetone. • 3. 1.8 mg CD-Dau+150 μl acetone+450 μl Neowater™ (25% acetone). • 4. 1.8 mg CD-Dau+600 μl 10% *PEG (Polyethylene Glycol). • 5. 1.8 mg CD-Dau+600 μl acetone+600 μl Neowater™.
The samples were vortexed and spectrophotometer measurements were performed on vials #1, 4 and 5
The vials were left opened in order to evaporate the acetone (vials #2, 3, and 5).
2 mg Daunorubicine+1 ml Neowater™ was prepared in one vial and 2 mg of Daunorubicine+1 ml RO was prepared in a second vial.
1.14 ml of EtOH was added to one glass vial containing 18.5 mg of t-boc (an oily material). This was then divided into two vials and 1.74 ml Neowater™ or RO water was added to the vials such that the solution comprised 25% EtOH. Following spectrophotometer measurements, the solvent was evaporated from the solution and Neowater™ was added to both vials to a final volume of 2.31 ml in each vial. The solutions in the two vials were merged to one clean vial and packaged for shipment under vacuum conditions.

[3] = Dissolving retinol in Neowater, absorbance and filtration (Example 12); assay type: physicochemical
Description: Retinol (vitamin A) was purchased from Sigma (Fluka, 99% HPLC). Retinol was solubilized in Neowater™ under the following conditions.
1% retinol (0.01 gr in 1 ml) in EtOH and Neowater™
0.5% retinol (0.005 gr in 1 ml) in EtOH and Neowater™
0.5% retinol (0.125 gr in 25 ml) in EtOH and Neowater™.
0.25% retinol (0.0625 gr in 25 ml) in EtOH and Neowater™. Final EtOH concentration: 1.5%
Absorbance spectrum of retinol in EtOM: Retinol solutions were made in absolute EtOH, with different retinol concentrations, in order to create a calibration graph; absorbance spectrum was detected in a spectrophotometer.
2 solutions with 0.25% and 0.5% retinol in Neowater with unknown concentration of EtOH were detected in a spectrophotometer. Actual concentration of retinol is also unknown since some oil drops are not dissolved in the water.
Filtration: 2 solutions of 0.25% retinol in Neowater™ were prepared, with a final EtOH concentration of 1.5%.The solutions were filtrated in […] filter.

293T cells = test: Cell viability assay, trypan blue count after taxol; assay type: cell-based; settings: taxol dissolved in Neowater, 1.666 μM, 24 hour treatment
Description: Cell viability assay: 150,000 293T cells were seeded in a 6 well plate with 3 ml of DMEM medium. Each treatment was grown in DMEM medium based on RO or Neowater™. […] The cells were harvested following a 24 hour treatment with taxol and counted using trypan blue solution to detect dead cells.

[4] = Solubilization of taxol in DMSO or Neowater with 17% EtOH (Example 15); assay type: physicochemical; settings: 0.5 mM; Neowater with 17% EtOH
Description: Solubilization: 0.5 mM Taxol solution was prepared (0.0017 gr in 4 ml) in either DMSO or Neowater™ with 17% EtOH. Absorbance was detected with a spectrophotometer.

[5] = Taxol in Neowater by slow solvent exchange, spectrophotometry and HPLC after storage (Example 18); assay type: physicochemical; settings: taxol dispersed in Neowater, 6 month storage at −20° C., HPLC
Description: Solubilization: 0.5 mM Taxol solution was prepared (0.0017 gr in 4 ml). Taxol was dissolved in ethanol and exchanged to Neowater™ using an RT slow solvent exchange procedure which extended for 20 days. […] The solution was sterilized using a 0.2 μm filter. Taxol was separately prepared in DMSO (0.5 mM). Both solutions were kept at −20° C. Absorbance was detected with a spectrophotometer.

[6] = Solubilization of peptides in Neowater (Example 11); assay type: physicochemical; settings: at 0.5 mM
Source text: Spectrophotometric measurements were taken.

COc1cccc2c1C(=O)c1c(O)c3c(c(O)c1C2=O)C[C@@](O)(C(C)=O)C[C@@H]3O[C@H]1C[C@H](N)[C@H](O)[C@H](C)O1 [Daunorubicine, Cerubidine hydrochloride]
solubility in water (known) [1]: known not to dissolve in water | dissolving in Neowater and RO ([2]; 2 mg in 1 ml): dissolves without difficulty

CC1=C(/C=C/C(C)=C/C=C/C(C)=C/CO)C(C)(C)CCC1 [Retinol]
retinol in the solutions following filtration ([3]; 0.25% retinol in Neowater, 1.5% EtOH, filtered (0.44 and 0.2 filter)): less than 0.03125% | retinol concentration in EtOH with similar absorbance pattern ([3]; nominal 0.25% retinol in Neowater): ~0.03125% | retinol concentration in EtOH with similar absorbance pattern ([3]; nominal 0.5% retinol in Neowater): ~0.125%

CC(=O)O[C@H]1C(=O)[C@@]2(C)[C@H]([C@H](OC(=O)c3ccccc3)[C@]3(O)C[C@H](OC(=O)[C@H](O)[C@@H](NC(=O)c4ccccc4)c4ccccc4)C(C)=C1C3(C)C)[C@]1(OC(C)=O)CO[C@@H]1C[C@@H]2O [Taxol, Paclitaxel]
cytotoxic effect (293T cells): comprised a cytotoxic effect | dissolving in DMSO and Neowater [4]: dissolved both in DMSO and Neowater™ | structural changes of the formulation on storage [5]: no structural changes

Daidzein—daunomycin conjugate [CD-Dau]
solubility in water (known) [1]: known not to dissolve in water | dissolving, Vial #3 (25% acetone) ([2]; 1.8 mg + 150 μl acetone + 450 μl Neowater): didn't dissolve very well | dissolving, Vial #4 (10% PEG+Neowater) ([2]; 1.8 mg + 600 μl 10% PEG): dissolved better than the CD-Dau in vial #1 | dissolving, Vial #2 (100% acetone) ([2]; 1.8 mg + 600 μl acetone): suspended inside the acetone | dissolving, Vial #5 (acetone exchanged for Neowater) ([2]; 1.8 mg + 600 μl acetone + 600 μl Neowater, as the acetone evaporated): partially sediment to the bottom of the vial | dissolving, Vial #1 (100% Neowater) ([2]; 5 mg + 1.2 ml Neowater): sedimented after a few hours

PFPSYKLRPG-NH2
dissolving in Neowater [6]: dissolved
